# Experimental data from patent US20030032003A1, “IN VIVO SELECTION” (priority 2000, published 2003).
# Columns and labels:
# [1] = system: hyg^R transgenic mice C57BL/6J-TgN(pPWL512hyg)1Ems; assay: Acute toxicity of hygromycin B, approximate lethal dose; format: in vivo, mouse; conditions: for body weight, percentage of the body weight before the experiment / survival: hyg^R, 10 days
# Experimental: (§1) The animals were kept in SPF conditions, supplied with standard diet and water ad libitum. The room was held at 22° C. with humidity 70% and 12 hours dark-light cycle. Hygromycin-B was purchased from Sigma. The compound was dissolved in sterile water before application and the solution was injected i.p.
# (§2) The approximate lethal dose of hygromycin B after single i.p. injections was determined according to Deichmann and LeBlanc (1943). […] Two sets of six month old male mice (22-28 g) were used for all acute toxicity experiments. […] Total volume injected was 0.5 ml. The health status and body weights of animals were monitored daily for 10 consecutive days. The lowest dose in the dose response curve at which one mouse died was considered as the approximate lethal dose. […] The animals were checked twice a day. The maximum theoretical time the animals could be dead before necropsy was performed was 12 hrs.
# (§3) The approximate lethal dose (Deichmann and LeBlanc 1943) of hygromycin B in transgenic hyg^R bearing as well as wildtype mice was determined as a measure of the acute toxicity. […] The first dose in the increasing sequence of doses at which the mice died was considered the approximate lethal dose. The health status of animals was monitored for ten consecutive days. Hyg^R transgenic and wildtype mice tolerated a single i.p. injection of hygromycin B without immediate toxic symptoms or distress. The approximate lethal dose of hygromycin B for wildtype mice was […] (Table 1). […] Lethal doses in both hyg^R expressing transgenic and wild type strains caused the same signs of decreased activity which progressed to lethargy and death. The body weight of animals after lethal doses decreased which was less severe at shorter survival duration after hygromycin treatment (Table 1).
# [2] = system: wildtype C57BL/6J mice; assay: as above; format: in vivo, mouse; conditions: for body weight, percentage of the body weight before the experiment / survival: wildtype, 10 days
# Experimental: as §1, §2, §3
# [3] = system: hyg^R mice; assay: Biochemical analysis of serum after hygromycin B; format: in vivo, mouse; conditions: serum 48 hrs after treatment
# Experimental: (§4) Serum biochemistry parameters analyzed included blood urea nitrogen ([…]), aspartate amino transferase (AST) and alanine amino transferase (ALT). The analyses were performed at Tufts University Veterinary Medical Diagnosis Laboratory with the chemical analyzer Hitachi 747. Blood was collected from the posterior vena cava of hyg^R mice that were treated with saline, 803 mg/kg and wildtype mice administered 9 mg/kg hygromycin B i.p.
# (§5) Hyg^R mice were treated with the lethal dose of 803 mg/kg hygromycin B and wildtype mice were treated with the lethal dose of 9 mg/kg hygromycin B. As a control, hyg^R mice were also treated with the nontoxic dose of 9 mg/kg. Serum samples taken 48 hrs after treatment were evaluated for the levels of blood urea nitrogen (BUN), aspartate amino transferase (AST) and alanine amino transferase (ALT). Elevated BUN is associated with dehydration and/or renal insufficiency. Elevated activities of ALT and AST are characteristic for liver damage particularly necrosis, cirrhosis and/or hepatitis. Increased AST levels are also characteristic for muscle trauma, myocardial infarction or myositis.
# [4] = system: wildtype mice; assay: Biochemical analysis of serum after hygromycin B; format: in vivo, mouse; conditions: 9 mg/kg single i.p., serum 48 hrs after treatment
# Experimental: as §4, §5
# [5] = system: hyg^R mice; assay: Histopathological analysis of mouse tissues after Hygromycin B; format: in vivo; conditions: lethal dose 803 mg/kg
# Experimental: (§6) The organs were prepared as paraffin-embedded glass slides stained with hematoxylin and eosin and evaluated as per the NTP (National Toxicology Program of NIEHS) standards. […] For liver, two cross sections, one of each of the two largest liver lobes were examined. For kidneys, an entire cross section (left longitudinal, right transverse) were evaluated. Lungs had two cross sections (one of each of the two largest lobes). The entire sections on the slides (all fields) were evaluated under blinded conditions for lesions and scored (graded) on a subjective basis compared to control animals. The grades were as follows: 1=minimal, 2=mild, 3=moderate, 4=marked, and 0=no pathological changes. The preparation and evaluation of slides used the NTP criteria and terminology (NIEHS, 1993).
# (§7) Morphological manifestations of hygromycin B tissue specific toxicity in animals treated with lethal doses was assessed by microscopic analysis. Lethal doses of hygromycin B (9 mg/kg) in wildtype animals caused nephrotoxicity typified by tubule eosinophilia, degeneration, and necrosis characterized by cytoplasmic eosinophilia associated with necrosis, loss of tubule cellular and nuclear detail or degeneration, and pyknotic nuclei and fragmentation of cells. These lesions are typical of acute tubular nephrosis. […] The hyg^R mice treated with lethal doses of hygromycin B (803 mg/kg) had liver damage characterized as hepatocellular fatty change, acute inflammation, and hepatocellular necrosis. Liver lesions in the hyg^R transgenic mice were typified by hepatocellular necrosis with nuclear pyknosis and loss of cellular detail, acute infiltration with small foci of neutrophils, and fatty change with hepatocellular intracytoplasmic large distinct clear vacuoles that displaced nuclei. These liver lesions are characteristic of acute liver damage.
# [6] = system: wildtype mice; assay: as above; format: in vivo; conditions: lethal dose 9 mg/kg
# Experimental: as §6, §7
smiles,measurement,setting,value
"CN[C@H]1C[C@@H](N)[C@H](O)[C@@H](O[C@@H]2O[C@H](CO)[C@H](O)[C@@H]3OC4(O[C@H]23)O[C@H]([C@@H](N)CO)[C@H](O)[C@H](O)[C@H]4O)[C@@H]1O (stereo partly drawn) [hygromycin B, Hygromycin-B]",approximate lethal dose,"[1]; hyg^R animals, single i.p.",535 mg/kg
same,increase of approximate lethal dose over the wildtype strain,[1]; hyg^R vs wildtype,89 fold
same,"body weight, percentage of the body weight before the experiment",[1]; 4 mg/kg single i.p.,102 ± 2%
same,survival,[1]; 4 mg/kg single i.p.,surv (surv. animals survived the 10 days period)
same,"body weight, percentage of the body weight before the experiment",[1]; 6 mg/kg single i.p.,107 ± 4%
same,survival,[1]; 6 mg/kg single i.p.,surv (surv. animals survived the 10 days period)
same,"body weight, percentage of the body weight before the experiment",[1]; 9 mg/kg single i.p.,107 ± 3%
same,survival,[1]; 9 mg/kg single i.p.,surv (surv. animals survived the 10 days period)
same,"body weight, percentage of the body weight before the experiment",[1]; 13.5 mg/kg single i.p.,101 ± 2%
same,survival,[1]; 13.5 mg/kg single i.p.,surv (surv. animals survived the 10 days period)
same,"body weight, percentage of the body weight before the experiment",[1]; 20 mg/kg single i.p.,105 ± 1%
same,survival,[1]; 20 mg/kg single i.p.,surv (surv. animals survived the 10 days period)
same,"body weight, percentage of the body weight before the experiment",[1]; 30 mg/kg single i.p.,105 ± 3%
same,survival,[1]; 30 mg/kg single i.p.,surv (surv. animals survived the 10 days period)
same,"body weight, percentage of the body weight before the experiment",[1]; 46 mg/kg single i.p.,107 ± 5%
same,survival,[1]; 46 mg/kg single i.p.,surv (surv. animals survived the 10 days period)
same,"body weight, percentage of the body weight before the experiment",[1]; 69 mg/kg single i.p.,101 ± 3%
same,survival,[1]; 69 mg/kg single i.p.,surv (surv. animals survived the 10 days period)
same,"body weight, percentage of the body weight before the experiment",[1]; 104 mg/kg single i.p.,103 ± 2%
same,survival,[1]; 104 mg/kg single i.p.,surv (surv. animals survived the 10 days period)
same,"body weight, percentage of the body weight before the experiment",[1]; 155 mg/kg single i.p.,102 ± 2%
same,survival,[1]; 155 mg/kg single i.p.,surv (surv. animals survived the 10 days period)
same,"body weight, percentage of the body weight before the experiment",[1]; 233 mg/kg single i.p.,93 ± 5%
same,survival,[1]; 233 mg/kg single i.p.,surv (surv. animals survived the 10 days period)
same,"body weight, percentage of the body weight before the experiment",[1]; 358 mg/kg single i.p.,99 ± 3%
same,survival,[1]; 358 mg/kg single i.p.,surv (surv. animals survived the 10 days period)
same,"body weight, percentage of the body weight before the experiment",[1]; 535 mg/kg single i.p.,83 ± 5%
same,survival,[1]; 535 mg/kg single i.p.,3 days
same,"body weight, percentage of the body weight before the experiment",[1]; 803 mg/kg single i.p.,89 ± 4%
same,survival,[1]; 803 mg/kg single i.p.,3.5 days
same,"body weight, percentage of the body weight before the experiment",[1]; 1205 mg/kg single i.p.,88 ± 2%
same,survival,[1]; 1205 mg/kg single i.p.,2 days
same,"body weight, percentage of the body weight before the experiment",[1]; 1809 mg/kg single i.p.,97 ± 2%
same,survival,[1]; 1809 mg/kg single i.p.,1 days
same,"body weight, percentage of the body weight before the experiment",[1]; 2709 mg/kg single i.p.,98 ± 1%
same,survival,[1]; 2709 mg/kg single i.p.,1 days
same,approximate lethal dose,"[2]; wildtype mice, single i.p.",6 mg/kg
same,"body weight, percentage of the body weight before the experiment",[2]; 2.7 mg/kg single i.p.,107 ± 3%
same,survival,[2]; 2.7 mg/kg single i.p.,surv (surv. animals survived the 10 days period)
same,"body weight, percentage of the body weight before the experiment",[2]; 4 mg/kg single i.p.,104 ± 1%
same,survival,[2]; 4 mg/kg single i.p.,surv (surv. animals survived the 10 days period)
same,"body weight, percentage of the body weight before the experiment",[2]; 6 mg/kg single i.p.,83 ± 2%
same,survival,[2]; 6 mg/kg single i.p.,3 days
same,"body weight, percentage of the body weight before the experiment",[2]; 9 mg/kg single i.p.,91 ± 4%
same,survival,[2]; 9 mg/kg single i.p.,3 days
same,"body weight, percentage of the body weight before the experiment",[2]; 13.5 mg/kg single i.p.,86 ± 6%
same,survival,[2]; 13.5 mg/kg single i.p.,3 days
same,"body weight, percentage of the body weight before the experiment",[2]; 20 mg/kg single i.p.,83 ± 2%
same,survival,[2]; 20 mg/kg single i.p.,3 days
same,"body weight, percentage of the body weight before the experiment",[2]; 30 mg/kg single i.p.,82 ± 2%
same,survival,[2]; 30 mg/kg single i.p.,3 days
same,ALT,[3]; 9 mg/kg single i.p.,28.7 ± 15.1 u/l
same,AST,[3]; 9 mg/kg single i.p.,43.0 ± 5.2 u/l
same,BUN,[3]; 9 mg/kg single i.p.,24.0 ± 4 mg/dL
same,ALT,[3]; 803 mg/kg single i.p.,108 ± 66.3 u/l
same,AST,[3]; 803 mg/kg single i.p.,102.0 ± 12.7 u/l
same,BUN,[3]; 803 mg/kg single i.p.,102 ± 55.1 mg/dL
same,ALT,[4],108 ± 61.5 u/l
same,AST,[4],135 ± 29.7 u/l
same,BUN,[4],97.7 ± 5.5 mg/dL
same,"Kidney Tubule degeneration, lesion severity grade",[5],0
same,"Kidney Tubule eosinophilia, lesion severity grade",[5],0
same,"Kidney Tubule necrosis, lesion severity grade",[5],0
same,"Liver Acute inflamation, lesion severity grade",[5],0.8 ± 1.0
same,"Liver Fatty change, lesion severity grade",[5],0.6 ± 0.8
same,"Liver Necrosis, lesion severity grade",[5],2.2 ± 0.4
same,"Kidney Tubule degeneration, lesion severity grade",[6],2.2 ± 0.4
same,"Kidney Tubule eosinophilia, lesion severity grade",[6],1.0 ± 1.2
same,"Kidney Tubule necrosis, lesion severity grade",[6],1.2 ± 1.1
same,"Liver Acute inflamation, lesion severity grade",[6],0
same,"Liver Fatty change, lesion severity grade",[6],0
same,"Liver Necrosis, lesion severity grade",[6],0
